Assay [1] has as its target Arachidonate 5-lipoxygenase (Cavia porcellus). Nature of the assay: In vitro inhibitory activity against 5-lipoxygenase by reduction of LTB4 formed in guinea pig polymorphonuclear leukocytes (PMNs).
Assay [2] shares this target. In words: In vitro inhibitory activity against 5-lipoxygenase by reduction of 5-hydroxyeicosatetraenoic acid (5-HETE) formed in guinea pig polymorphonuclear leukocytes (PMNs).
For assay [3] the target is unchanged. Described as above. The source holds these as a separate data set.
The target in assay [4] is Thromboxane-A synthase (Homo sapiens) (UniProt P24557). Nature of the assay: Inhibitory concentration against human platelet thromboxane synthetase.

Structures are written as SMILES. Some results are limits rather than exact numbers.

Chain of Thromboxane-A synthase (Homo sapiens) (P24557 whole entry, looked up): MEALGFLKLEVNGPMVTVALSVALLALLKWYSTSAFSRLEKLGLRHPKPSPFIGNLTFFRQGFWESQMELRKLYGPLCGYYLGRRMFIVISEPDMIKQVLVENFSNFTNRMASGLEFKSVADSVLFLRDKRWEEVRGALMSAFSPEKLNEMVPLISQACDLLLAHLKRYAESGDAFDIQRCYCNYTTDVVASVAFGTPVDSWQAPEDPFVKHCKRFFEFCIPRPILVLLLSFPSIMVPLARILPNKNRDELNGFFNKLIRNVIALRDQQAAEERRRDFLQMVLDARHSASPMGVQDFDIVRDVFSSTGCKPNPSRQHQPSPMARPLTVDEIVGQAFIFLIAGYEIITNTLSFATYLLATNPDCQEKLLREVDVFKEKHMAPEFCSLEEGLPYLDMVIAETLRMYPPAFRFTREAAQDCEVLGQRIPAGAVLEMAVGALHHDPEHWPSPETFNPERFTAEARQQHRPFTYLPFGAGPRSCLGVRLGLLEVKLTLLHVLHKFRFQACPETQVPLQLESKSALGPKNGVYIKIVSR

The IC50 is the concentration needed to halve the response being measured. A low value points to greater potency. `CCCCNC(=O)N(O)CC1=Cc2cc(Oc3ccccc3)ccc2OC1` [N-hydroxy-N-[(6-phenoxy-2H-chromen-3-yl)methyl]-N'-butylurea]: the IC50 in assay [1] amounted to 69 nM; in assay [2], 65 nM. With `CCCCCCOc1ccc2c(c1)C=C(CN(O)C(N)=O)CO2` [N-(6-Hexyloxy-2H-chromen-3-ylmethyl)-hydroxylurea], the IC50 in assay [1] came to 340 nM; in assay [3] it was 280 nM.

For the molecule `NC(=O)N(O)CC1=Cc2cc(OCC3CCCCC3)ccc2OC1` [N-(6-Cyclohexylmethoxy-2H-chromen-3-ylmethyl)-hydroxylurea], the figures for the IC50 in assay [1] and in assay [2] were 1390 nM and 1360 nM, respectively.

Take `C=CCNC(=O)N(O)CC1=Cc2cc(Oc3ccccc3)ccc2OC1` [N'-allyl-N-hydroxy-N-[(6-phenoxy-2H-chromen-3-yl)methyl]urea]: the concentration for half-maximal inhibition (IC50) came out at 44 nM in assay [1] and 37 nM in assay [2]. With `COc1ccc2c(c1)OCC(CN(O)C(N)=O)C2` (stereo not given) [N-hydroxy-N-[(7-methoxy-3,4-dihydro-2H-chromen-3-yl)methyl]urea], the IC50 in assay [1] and in assay [3] was greater than 3000 nM throughout. Turning to `CC1Oc2ccc(Oc3ccccc3)cc2C=C1CN(O)C(N)=O` (stereo not given) [N-hydroxy-N-[(2-methyl-6-phenyoxy-2H-chromen-3-yl)methyl]urea], the IC50 in assay [1] stood at 87 nM; in assay [3], 120 nM. Take `CCOC(=O)CNC(=O)N(O)CC1=Cc2cc(Oc3ccccc3)ccc2OC1` [ethyl [({hydroxy[(6-phenoxy-2H-chromen-3-yl)methyl]amino}carbonyl)amino]acetate]: the results for the IC50 in assay [1] and in assay [2] were 74 nM and 68 nM, respectively. Molecule `CC(c1cc2ccccc2s1)N(O)C(N)=O` (racemic) [Leutrol] registered an IC50 in assay [4] greater than 20000 nM. For `NC(=S)N(O)CC1=Cc2cc(Oc3ccccc3)ccc2OC1` [N-hydroxy-N-[(6-phenoxy-2H-chromen-3-yl)methyl]thiourea], the results for the IC50 in assay [1] and in assay [3] were 200 nM and 180 nM, respectively. For `CC1(C)Oc2ccc(Oc3ccccc3)cc2C=C1CN(O)C(N)=O` [N-[(2,2-dimethyl-6-phenyoxy-2H-chromen-3-yl)methyl]-N-hydroxyurea] the same measures were 440 nM and 310 nM. Regarding `NC(=O)N(O)CC1=Cc2cc(-c3ccccc3)ccc2OC1` [N-hydroxy-N-[(6-phenyl-2H-chromen-3-yl)methyl]urea], the results for the IC50 in assay [1] and in assay [2] were 230 nM and 240 nM, respectively. In the same order, the values of `NC(=O)N(O)CC1=Cc2cc(Br)ccc2OC1` [N-[(6-bromo-2H-chromen-3-yl)methyl]-N-hydroxyurea] are 1400 nM and 1400 nM. Take `CCCC1Oc2ccc(Oc3ccccc3)cc2C=C1CN(O)C(N)=O` (stereo not given) [N-hydroxy-N-[(6-phenyoxy-2-propyl-2H-chromen-3-yl)methyl]urea]: the results for the IC50 in assay [1] and in assay [3] were 870 nM and 880 nM, respectively. For `CC(C)NC(=O)N(O)CC1=Cc2cc(Oc3ccccc3)ccc2OC1` [N-hydroxy-N'-isopropyl-N-[(6-phenoxy-2H-chromen-3-yl)methyl]urea], the values for the IC50 in assay [1] and in assay [3] were 63 nM and 49 nM, respectively. For `NC(=O)N(O)CC1=Cc2cc(OCc3ccc(C(F)(F)F)cc3)ccc2OC1` [N-[6-(4-Trifluoromethyl-benzyloxy)-2H-chromen-3-ylmethyl]-hydroxylurea], the IC50 was found to be 490 nM in assay [1] and 430 nM in assay [3]. For the molecule `NC(=O)N(O)CC1=Cc2cc(Oc3ccccc3)ccc2OC1` [N-hydroxy-N-[(6-phenoxy-2H-chromen-3-yl)methyl]urea], the IC50 in assay [4] is greater than 20000 nM.

Take `NC(=O)N(O)CC1=Cc2cc(OCCCc3ccccc3)ccc2OC1`: the IC50 in assay [1] came out at 160 nM; in assay [3], 130 nM.

Turning to `CNC(=O)N(O)CC1=Cc2cc(Oc3ccc(F)cc3)ccc2OC1` [N-{[6-(4-fluorophenoxy)-2H-chromen-3-yl]methyl}-N-hydroxy-N'-methylurea], the IC50 in assay [4] was greater than 20000 nM. As for `NC(=O)N(O)CC1=Cc2cc(OCc3ccccc3)ccc2OC1` [N-(6-Benzyloxy-2H-chromen-3-ylmethyl)-hydroxylurea], the IC50 in assay [1] was 380 nM; in assay [2], 440 nM.

The values above are taken from BindingDB's records for doi:10.1021/jm00075a013 (Ciba-Geigy, 1994).
